Several values for one entry are separate records, joined by “and”; a condition that tells them apart may be missing. Equal values may be shown once. Read-outs that look alike come from different tables or passages of the source.

The source of these data is US10993448B2, “Method for sanitizing fresh produce” (Dole Fresh Vegetables, Inc., priority 2014, dated 2021).

The test system of assay [1] is Non-selective mix. The assay can be described thus: Suspension tests, non-selective agar. Particulars: for Average log reduction: vs water control. Also noted: key to Average log reduction: * indicates a sample in which no bacteria grew, so no fold reduction may be calculated. The assay is classed as cell-based, E. coli O157:H7, sv. Typhimurium, and Listeria monocytogenes.

The subject of assay [2] is Listeria monocytogenes. It counts as cell-based.
In assay [3] the test system is Listeria monocytogenes. Briefly: Suspension tests, Listeria. Also noted: key to Average log reduction: * indicates a sample in which no bacteria grew, so no fold reduction may be calculated. Particulars: for Average log reduction: vs water control. It counts as cell-based.
For assay [4], the system named is E. coli O157:H7. Briefly: Suspension tests, E. coli. It counts as cell-based. Also noted: key to Average log reduction: * indicates a sample in which no bacteria grew, so no fold reduction may be calculated. To be noted: for Average log reduction: vs water control.
In assay [5] the test system is Salmonella. Briefly: Suspension tests, Salmonella. It counts as cell-based, sv. Typhimurium. Set-up: key to Average log reduction: * indicates a sample in which no bacteria grew, so no fold reduction may be calculated. Particulars: for Average log reduction: vs water control.
The test system of assay [6] is background microbial load (LB load). Briefly: Log reduction analysis of background bacteria on inoculated Romaine lettuce. The assay is classed as cell-based. Particulars: after each dip, in log units, No treatment 4.81.
The subject of assay [7] is microbial load (APC) of chopped Romaine lettuce. It counts as cell-based.
For assay [8], the system named is microbial load (Total Aerobic Plate Count) of raw, unwashed leafy vegetables. The assay is classed as cell-based.
Assay [9] relates to background microflora in wash water. Briefly: Reduction of bacteria from wash water using ozone. The assay is classed as cell-based. An excerpt: Water containing high levels of background microflora was generated by dipping 200 g of lettuce in 2 L of water for 20 seconds. This lettuce was discarded and another 200 g of lettuce was dipped in the same water for 20 seconds. This was repeated for a total of 10 dips (referred to as Control in Table 34 below). Water with dissolved Ozone was then generated using a ClearWater Tech MSW245 Mobile Ozone Generator (San Luis Obispo, Calif.). The control microflora containing water was then mixed with this ‘Ozonated water’ at various mix levels ranging from 10 to 60% of the ozonated water with the control microflora containing water. First, 10% ozonated water was blended with 90% microflora containing water and after 20 seconds, 100 ml of water was removed into a sterile water sample bottle. This protocol was repeated in triplicate, as well as testing 20%, 30%, 40%, 50%, and 60% blends of ozonated water combined with the microflora containing water. In addition, 200 g of lettuce was added to the ozonated solution for 20 seconds and 100 ml of water was then collected in a sterile water sample bottle. This was also repeated in triplicate. The samples were serially diluted using PB as the diluent and plated on Total Plate Count agar. The plates were incubated for 48 hours at 30° C. for enumeration of the bacteria present following treatment.
The theoretical dilution reduction in Table 34 was calculated based on the number of cells that would be present if they were diluted in water or buffer (i.e. not a solution that would cause cell death or injury).

With `[O][Cl+][O-]` [ClO2 dip, chlorine dioxide], the “% bacteria killed” value is recorded as 100.000% in assay [1]; 100% in assay [1] (30 seconds at 4° C., listed as 10 ppm chlorine dioxide); 100% in [1] (30 seconds at 4° C., listed as Chlorine dioxide (10 ppm)); 100% in assay [1] (30 seconds at 15° C., listed as 10 ppm chlorine dioxide); 100% in assay [1] (30 seconds at 15° C., listed as Chlorine dioxide (10 ppm)); 99.9988% in [1] (30 seconds at 40° C., listed as 10 ppm chlorine dioxide). Further, the “% bacteria killed” value in assay [1] (30 seconds at 40° C., listed as Chlorine dioxide (10 ppm)) is reported as 99.9988%; in assay [1] (90 seconds at 4° C., listed as 10 ppm chlorine dioxide), 100%; in [1] (90 seconds at 4° C., listed as Chlorine dioxide (10 ppm)), 100%; in assay [1] (90 seconds at 15° C., listed as 10 ppm chlorine dioxide), 99.9998%; in [1] (90 seconds at 15° C., listed as Chlorine dioxide (10 ppm)), 99.9998%; in assay [1] (90 seconds at 40° C., listed as 10 ppm chlorine dioxide), 99.2623%. In addition, the “% bacteria killed” value in assay [1] (90 seconds at 40° C., listed as Chlorine dioxide (10 ppm)) was 99.2623%; in assay [3] (30 seconds at 4° C.) it was 100%; in assay [3] (30 seconds at 15° C.) it was 100%; in [3] (30 seconds at 40° C.), 99.9999%; in assay [3] (90 seconds at 4° C.) it was 100%; in assay [3] (90 seconds at 15° C.), 100%. Further, the “% bacteria killed” value is listed as 96.080% in assay [3] (90 seconds at 40° C.); 100% in assay [4] (30 seconds at 4° C.); 100% in [4] (30 seconds at 15° C.); 99.9993% in [4] (30 seconds at 40° C.); 100% in assay [4] (90 seconds at 4° C.); 100% in assay [4] (90 seconds at 15° C.). The “% bacteria killed” value is given as 99.1083% in assay [4] (90 seconds at 40° C.); 100% in [5] (30 seconds at 4° C.); 100% in [5] (30 seconds at 15° C.); 99.9995% in [5] (30 seconds at 40° C.); 100% in [5] (90 seconds at 4° C.); 100% in assay [5] (90 seconds at 15° C.). The “% bacteria killed” value in assay [5] (90 seconds at 40° C.) is 99.4879%. Further, the “Average (bacterial load)” value in assay [1] (30 seconds at 4° C., Water 1.00 × 10^7) is 0.00; in assay [1] (30 seconds at 15° C., Water 8.46 × 10^6), 0.00; in [1] (30 seconds at 40° C., Water 8.30 × 10^6), 1.00 × 10^2; in assay [1] (90 seconds at 4° C., Water 6.22 × 10^6), 2.00 × 10^0; in assay [1] (90 seconds at 15° C., Water 1.21 × 10^7), 2.00 × 10^1; in assay [1] (90 seconds at 40° C., Water 9.76 × 10^6), 7.20 × 10^4. For the same compound, the “Average (bacterial load)” value in [3] (30 seconds at 4° C., Water 4.96 × 10^5) is given as 0.00; in [3] (30 seconds at 15° C., Water 2.24 × 10^6) it was 0.00; in [3] (30 seconds at 40° C., Water 2.32 × 10^6), 2.00 × 10^0; in assay [3] (90 seconds at 4° C., Water 2.06 × 10^5), 0.00; in assay [3] (90 seconds at 15° C., Water 7.14 × 10^4) it was 0.00; in [3] (90 seconds at 40° C., Water 2.50 × 10^6), 9.80 × 10^4. The “Average (bacterial load)” value is on record as 0.00 in [4] (30 seconds at 4° C., Water 5.72 × 10^6); 0.00 in assay [4] (30 seconds at 15° C., Water 5.96 × 10^6); 2.20 × 10^1 in [4] (30 seconds at 40° C., Water 3.22 × 10^6); 0.00 in assay [4] (90 seconds at 4° C., Water 3.96 × 10^6); 0.00 in assay [4] (90 seconds at 15° C., Water 5.74 × 10^6); 2.80 × 10^4 in assay [4] (90 seconds at 40° C., Water 3.14 × 10^6). In addition, the “Average (bacterial load)” value was 0.00 in assay [5] (30 seconds at 4° C., Water 5.32 × 10^6); 0.00 in [5] (30 seconds at 15° C., Water 2.70 × 10^6); 2.20 × 10^1 in assay [5] (30 seconds at 40° C., Water 4.36 × 10^6); 0.00 in assay [5] (90 seconds at 4° C., Water 1.57 × 10^6); 0.00 in assay [5] (90 seconds at 15° C., Water 4.54 × 10^6); 3.80 × 10^4 in assay [5] (90 seconds at 40° C., Water 7.42 × 10^6). Also, the Average log reduction result was “*” in assay [1] (30 seconds at 4° C.); “*” in [1] (30 seconds at 15° C.); 4.92 in [1] (30 seconds at 40° C.); 6.49 in assay [1] (90 seconds at 4° C.); 5.78 in assay [1] (90 seconds at 15° C.); 2.13 in assay [1] (90 seconds at 40° C.). Moreover, the Average log reduction result was “*” in assay [3] (30 seconds at 4° C.); “*” in [3] (30 seconds at 15° C.); 6.06 in [3] (30 seconds at 40° C.); “*” in [3] (90 seconds at 4° C.); “*” in assay [3] (90 seconds at 15° C.); 1.41 in [3] (90 seconds at 40° C.). The Average log reduction result in [4] (30 seconds at 4° C.) is recorded as “*”; in [4] (30 seconds at 15° C.) it was “*”; in assay [4] (30 seconds at 40° C.) it was 5.17; in [4] (90 seconds at 4° C.), “*”; in assay [4] (90 seconds at 15° C.), “*”; in assay [4] (90 seconds at 40° C.), 2.05. In addition, the Average log reduction entry in assay [5] (30 seconds at 4° C.) is “*”; in [5] (30 seconds at 15° C.) it was “*”; in [5] (30 seconds at 40° C.), 5.30; in [5] (90 seconds at 4° C.) it was “*”; in assay [5] (90 seconds at 15° C.), “*”; in assay [5] (90 seconds at 40° C.), 2.29. For the same compound, the “Listeria Load (%)” value in assay [2] is 2.87% and 4.29%. Moreover, the “Avg. Bacterial Load” value was found to be 1.56 in assay [6] (Treatment 1 (ClO2, Cl2, PAA)) and 2.41 in assay [6] (Treatment 2 (ClO2, PAA, Cl2)).
Consider `CC(=O)OO` [PAA, peroxyacetic acid], for which the “log unit reduction in microbial load after each individual step” value in assay [7] was 2.4 log unit.
In the case of `OO` [Treatment H2O2, hydrogen peroxide], the “APC (CFU/g)” value in assay [8] was 5,800 CFU/g.
In the case of `O=[O+][O-]` [ozone solution, ozone], the “Avg. CFU/ml” value in assay [9] (lettuce 20 sec in ozone solution, initial ozone 2.2 ppm, 20 sec in water 19266) is on record as 6900 CFU/ml; in assay [9] (ozone solution (initial 1.8 ppm) mixed with microflora containing water, Control after 10 dips in water 300000, listed as 10% ozone solution, After mixing 10% ozone solution), 300000 CFU/ml; in assay [9] (ozone solution (initial 1.8 ppm) mixed with microflora containing water, Control after 10 dips in water 300000, listed as 20% ozone solution, After mixing 20% ozone solution), 185333 CFU/ml; in assay [9] (ozone solution (initial 1.8 ppm) mixed with microflora containing water, Control after 10 dips in water 300000, listed as 30% ozone solution, After mixing 30% ozone solution), 174667 CFU/ml; in assay [9] (ozone solution (initial 1.8 ppm) mixed with microflora containing water, Control after 10 dips in water 300000, listed as 40% ozone solution, After mixing 40% ozone solution), 121667 CFU/ml; in assay [9] (ozone solution (initial 1.8 ppm) mixed with microflora containing water, Control after 10 dips in water 300000, listed as 50% ozone solution, After mixing 50% ozone solution), 87667 CFU/ml. Also, the “Avg. CFU/ml” value in [9] (ozone solution (initial 1.8 ppm) mixed with microflora containing water, Control after 10 dips in water 300000, listed as 60% ozone solution, After mixing 60% ozone solution) is 70333 CFU/ml.
